The record followed here is patent US11365188B2, “JAK inhibitors” (priority 2018, dated 2022).

Common to all, as to format: biochemical
In assay [1] the target is JAK1 (Homo sapiens, UniProt P23458). The experiment in a line: JAK Kinase Assay (JAK1, Caliper EZ Reader, fluoresceinated peptide). As to conditions: ATP 76.5 μM; JAK1 10 nM; 120 minutes at room temperature; read-out: JAK1 inhibition.
The target in assay [2] is JAK2 (Homo sapiens, UniProt O60674). The experiment in a line: JAK2 Assay (Caliper EZ Reader, fluoresceinated peptide). Conditions: ATP 11.4 μM; JAK2 0.25 nM; 15 minutes at room temperature; read-out: JAK2 inhibition. Here is the method: JAK2 Assay 384-well plates in the left foot butoxy measured progress. The final assay volume was 25 μL, 250 nL 100× compounds, 10 μL enzyme mix and 15 μL substrate mix (fluoresceinated peptide and ATP) in assay buffer (50 mM HEPES (pH 7.5), 10 mM MgCl2, 0.01% TritonX-100, 0.01% Brij35, 0.5 mM EGTA and 2 mM DTT) prepared as test compound By mixing the JAK2 with substrates and test compounds to start the reaction. The reaction mixture was incubated for 15 minutes at room temperature, then added 30 μL stop buffer for each sample to terminate the reaction with 50 mM EDTA. After termination of the kinase reaction, the proportion of phosphorylated product was determined as a fraction of total peptide substrate using Caliper EZ Reader 1 Inhibition data were calculated by comparison with 100% of the reaction mixture without enzyme inhibition and vehicle-only reaction mixture billion % inhibition compared. The final concentration of reagents in the assays is: ATP, 11.4 μM; JAK2 fluorescent peptide (5-FAM-EEPLYWSFPAKKK-CONH2), 3 μM; JAK2, 0.25 nM; and DMSO, 1%. Dose response curve were generated to determine the concentration required for IC50 of JAK2 activity.
Chain of JAK2 (O60674 whole entry, species assumed): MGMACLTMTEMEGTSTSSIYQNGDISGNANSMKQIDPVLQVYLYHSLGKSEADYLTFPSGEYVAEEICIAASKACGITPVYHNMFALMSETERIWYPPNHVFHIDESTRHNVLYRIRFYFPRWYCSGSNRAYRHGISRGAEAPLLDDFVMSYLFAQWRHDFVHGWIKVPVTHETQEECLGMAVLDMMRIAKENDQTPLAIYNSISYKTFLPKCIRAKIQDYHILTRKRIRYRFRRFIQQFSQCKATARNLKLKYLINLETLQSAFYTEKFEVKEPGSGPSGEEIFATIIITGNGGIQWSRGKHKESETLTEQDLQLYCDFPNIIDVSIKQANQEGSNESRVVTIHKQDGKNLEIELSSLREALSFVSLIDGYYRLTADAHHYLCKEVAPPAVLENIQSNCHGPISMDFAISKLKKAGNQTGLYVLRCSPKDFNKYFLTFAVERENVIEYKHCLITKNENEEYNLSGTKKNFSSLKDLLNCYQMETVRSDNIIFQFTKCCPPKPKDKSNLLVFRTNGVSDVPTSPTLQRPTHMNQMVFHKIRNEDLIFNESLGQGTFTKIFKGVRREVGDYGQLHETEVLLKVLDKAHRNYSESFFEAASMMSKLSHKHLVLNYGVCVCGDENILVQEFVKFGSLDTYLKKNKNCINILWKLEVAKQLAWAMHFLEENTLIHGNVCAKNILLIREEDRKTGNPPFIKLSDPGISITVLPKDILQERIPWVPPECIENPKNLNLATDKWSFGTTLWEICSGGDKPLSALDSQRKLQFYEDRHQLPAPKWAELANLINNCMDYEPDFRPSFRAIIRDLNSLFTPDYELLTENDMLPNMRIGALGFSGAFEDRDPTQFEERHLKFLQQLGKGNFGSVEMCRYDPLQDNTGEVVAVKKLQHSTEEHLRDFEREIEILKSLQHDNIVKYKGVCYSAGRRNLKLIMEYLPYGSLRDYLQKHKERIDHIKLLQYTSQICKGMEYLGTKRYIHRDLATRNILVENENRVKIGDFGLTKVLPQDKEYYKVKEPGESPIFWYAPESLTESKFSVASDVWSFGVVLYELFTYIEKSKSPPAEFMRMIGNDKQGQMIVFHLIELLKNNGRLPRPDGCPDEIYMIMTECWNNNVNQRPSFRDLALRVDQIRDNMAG

Assay [3] addresses T1, JAK3 (Homo sapiens, UniProt P52333).
T1 sequence (P52333 1-1124): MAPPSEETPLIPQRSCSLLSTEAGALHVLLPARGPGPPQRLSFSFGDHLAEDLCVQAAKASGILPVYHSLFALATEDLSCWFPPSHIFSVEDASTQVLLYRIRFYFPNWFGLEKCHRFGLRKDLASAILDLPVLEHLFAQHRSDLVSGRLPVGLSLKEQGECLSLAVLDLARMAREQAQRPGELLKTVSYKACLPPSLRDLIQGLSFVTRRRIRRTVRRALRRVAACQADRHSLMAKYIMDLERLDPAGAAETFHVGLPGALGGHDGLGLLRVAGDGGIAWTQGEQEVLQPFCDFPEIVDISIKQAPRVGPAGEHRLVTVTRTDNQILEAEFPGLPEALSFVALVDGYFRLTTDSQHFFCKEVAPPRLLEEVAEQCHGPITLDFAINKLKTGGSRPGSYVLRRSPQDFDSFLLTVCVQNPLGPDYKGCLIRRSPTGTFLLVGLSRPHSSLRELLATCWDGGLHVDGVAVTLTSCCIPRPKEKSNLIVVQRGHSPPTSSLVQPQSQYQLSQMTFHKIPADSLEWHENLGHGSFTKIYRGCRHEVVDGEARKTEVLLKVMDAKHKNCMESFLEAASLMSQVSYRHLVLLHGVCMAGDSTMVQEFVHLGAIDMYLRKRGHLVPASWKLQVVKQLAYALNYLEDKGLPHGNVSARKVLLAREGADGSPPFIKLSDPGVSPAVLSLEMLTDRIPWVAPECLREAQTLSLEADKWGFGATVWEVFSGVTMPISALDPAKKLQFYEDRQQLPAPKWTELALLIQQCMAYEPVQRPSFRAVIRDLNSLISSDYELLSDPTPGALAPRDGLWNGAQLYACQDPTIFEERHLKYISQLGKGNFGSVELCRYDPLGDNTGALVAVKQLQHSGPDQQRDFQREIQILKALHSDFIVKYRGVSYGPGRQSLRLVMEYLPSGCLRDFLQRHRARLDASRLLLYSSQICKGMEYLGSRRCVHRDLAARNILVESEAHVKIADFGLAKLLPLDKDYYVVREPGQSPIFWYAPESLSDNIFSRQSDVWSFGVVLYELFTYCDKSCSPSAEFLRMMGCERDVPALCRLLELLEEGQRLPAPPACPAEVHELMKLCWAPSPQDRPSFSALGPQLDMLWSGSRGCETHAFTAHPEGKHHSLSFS
The experiment in a line: JAK3 Assay (Caliper EZ Reader, fluoresceinated peptide). Conditions: ATP 3.5 μM; JAK3 0.5 nM; 30 minutes at room temperature; read-out: JAK3 inhibition. Here is the method:
JAK3 Assay 384-well plates in the left foot butoxy measured progress. The final assay volume was 25 μL, 250 nL 100× compounds, 10 μL enzyme mix and 15 μL substrate mix (fluoresceinated peptide and ATP) in assay buffer (50 mM HEPES (pH 7.5), 10 mM MgCl2, 0.01% TritonX-100, 0.01% Brij35, 0.5 mM EGTA and 2 mM DTT) prepared as test compound. By mixing the JAK3 with substrates and test compounds to start the reaction. The reaction mixture was incubated for 30 minutes at room temperature, then added 30 μL stop buffer for each sample to terminate the reaction with 50 mM EDTA. After termination of the kinase reaction, the proportion of phosphorylated product was determined as a fraction of total peptide substrate using Caliper EZ Reader II. Inhibition data were calculated by comparison with 100% of the reaction mixture without enzyme inhibition and vehicle-only reaction mixture billion % inhibition compared. The final concentration of reagents in the assays is: ATP, 3.5 μM; JAK3 fluorescent peptide (5-FAM-EEPLYWSFPAKKK-CONH2), 3 μM; JAK3, 0.5 nM; and DMSO, 1%. Dose response curve were generated to determine the concentration required for IC50 of JAK3 activity.

Some results are limits rather than exact numbers.

Chain of JAK1 (P23458 whole entry, species assumed): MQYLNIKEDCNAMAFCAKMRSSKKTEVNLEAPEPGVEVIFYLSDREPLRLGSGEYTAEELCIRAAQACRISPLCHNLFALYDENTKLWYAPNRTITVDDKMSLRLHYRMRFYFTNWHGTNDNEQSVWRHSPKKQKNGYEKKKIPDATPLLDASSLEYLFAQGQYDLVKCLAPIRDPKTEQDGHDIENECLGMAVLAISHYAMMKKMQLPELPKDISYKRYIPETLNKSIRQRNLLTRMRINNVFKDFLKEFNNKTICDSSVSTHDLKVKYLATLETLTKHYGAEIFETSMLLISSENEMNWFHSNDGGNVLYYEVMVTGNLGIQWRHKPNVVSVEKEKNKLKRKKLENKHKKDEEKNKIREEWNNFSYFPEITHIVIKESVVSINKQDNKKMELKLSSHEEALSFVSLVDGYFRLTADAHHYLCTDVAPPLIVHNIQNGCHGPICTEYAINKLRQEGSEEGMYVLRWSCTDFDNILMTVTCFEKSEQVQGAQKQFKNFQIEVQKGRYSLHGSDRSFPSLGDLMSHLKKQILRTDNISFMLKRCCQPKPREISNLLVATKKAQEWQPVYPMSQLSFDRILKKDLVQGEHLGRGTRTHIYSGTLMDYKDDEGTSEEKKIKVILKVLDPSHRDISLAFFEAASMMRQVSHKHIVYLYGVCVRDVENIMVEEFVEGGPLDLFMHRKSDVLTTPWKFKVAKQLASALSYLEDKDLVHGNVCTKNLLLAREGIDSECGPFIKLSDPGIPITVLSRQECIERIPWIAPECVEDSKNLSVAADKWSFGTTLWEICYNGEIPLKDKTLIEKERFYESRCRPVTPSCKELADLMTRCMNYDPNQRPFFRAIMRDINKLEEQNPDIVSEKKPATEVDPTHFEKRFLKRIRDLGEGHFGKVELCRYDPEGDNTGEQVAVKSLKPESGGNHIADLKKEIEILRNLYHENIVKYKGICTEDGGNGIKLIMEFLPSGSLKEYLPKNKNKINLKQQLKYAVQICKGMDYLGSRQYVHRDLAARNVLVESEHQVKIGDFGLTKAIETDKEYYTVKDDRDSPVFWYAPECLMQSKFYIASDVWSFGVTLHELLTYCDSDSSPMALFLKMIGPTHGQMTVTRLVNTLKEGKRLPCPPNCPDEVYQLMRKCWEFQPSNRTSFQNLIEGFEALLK

As to `CN(c1ncnc2[nH]ccc12)C1CC2(C1)CN(C(=O)C1(C#N)CC1)C2` [Compound 19, 1-(6-(methyl(7H-pyrrolo[2,3-d]pyrimidin-4-yl)amino)-2-azaspiro[3.3]heptane-2-carbonyl)cyclopropanecarbonitrile], the IC50 in assay [1] was in the range of 10 to 100 nM; in assay [2] it was 100 to 1000 nM; in assay [3], 1000 to 10000 nM.
The matching figures for `CN(c1ncnc2[nH]ccc12)C1CC2(C1)CN(C(=O)c1cc3ccccc3s1)C2` [Compound 20, benzo[b]thiophen-2-yl(6-(methyl(7H-pyrrolo[2,3-d]pyrimidin-4-yl)amino)-2-azaspiro[3.3]heptan-2-yl)methanone]: 10 to 100 nM, 1000 to 10000 nM and 1000 to 10000 nM.
The matching figures for `CN(c1ncnc2[nH]ccc12)C1CC2(C1)CN(C(=O)CCC(F)(F)F)C2` [Compound 21, 4,4,4-trifluoro-1-(6-(methyl(7H-pyrrolo[2,3-d]pyrimidin-4-yl)amino)-2-azaspiro[3.3]heptan-2-yl)butan-1-one]: 10 to 100 nM, 100 to 1000 nM and 1000 to 10000 nM.
As for `CN(c1ncnc2[nH]ccc12)C1CC2(C1)CN(C(=O)c1csc3ccccc13)C2` [Compound 22, benzo[b]thiophen-3-yl(6-(methyl(7H-pyrrolo[2,3-d]pyrimidin-4-yl)amino)-2-azaspiro[3.3]heptan-2-yl)methanone], the values for the IC50 in assay [1], in assay [2] and in assay [3] were 10 to 100 nM, 1000 to 10000 nM and 1000 to 10000 nM, respectively.
Consider `CN(c1ncnc2[nH]ccc12)C1CC2(C1)CN(C(=O)Cc1c[nH]c3ccccc13)C2` [Compound 23, 2-(1H-indol-3-yl)-1-(6-(methyl(7H-pyrrolo[2,3-d]pyrimidin-4-yl)amino)-2-azaspiro[3.3]heptan-2-yl)ethanone], for which the results for the IC50 in assay [1], in assay [2] and in assay [3] were 100 to 1000 nM, 1000 to 10000 nM and 1000 to 10000 nM, respectively.
With `Cc1cncc(C(=O)N2CC3(CC(N(C)c4ncnc5[nH]ccc45)C3)C2)n1` [Compound 29, (6-(methyl(7H-pyrrolo[2,3-d]pyrimidin-4-yl)amino)-2-azaspiro[3.3]heptan-2-yl)(6-methylpyrazin-2-yl)methanone], the IC50 in assay [1] was 100 to 1000 nM; in assay [2] it was 1000 to 10000 nM; in assay [3], no less than 10000 nM.
The like results for `Cc1cc(C(=O)N2CC3(CC(N(C)c4ncnc5[nH]ccc45)C3)C2)ccc1C#N` [Compound 34, 2-methyl-4-(6-(methyl(7H-pyrrolo[2,3-d]pyrimidin-4-yl)amino)-2-azaspiro[3.3]heptane-2-carbonyl)benzonitrile] were, in that order, 10 to 100 nM, 1000 to 10000 nM and 1000 to 10000 nM.
Take `CN(c1ncnc2[nH]ccc12)C1CC2(C1)CN(C(=O)c1ccc(C#N)nc1)C2` [Compound 35, 5-(6-(methyl(7H-pyrrolo[2,3-d]pyrimidin-4-yl)amino)-2-azaspiro[3.3]heptane-2-carbonyl)picolinonitrile]: the IC50 lay in the range of 10 to 100 nM in assay [1], 1000 to 10000 nM in assay [2] and 1000 to 10000 nM in assay [3].
With `CN(c1ncnc2[nH]ccc12)C1CC2(C1)CN(C(=O)c1ccc(C#N)c(Cl)c1)C2` [Compound 36, 2-chloro-4-(6-(methyl(7H-pyrrolo[2,3-d]pyrimidin-4-yl)amino)-2-azaspiro[3.3]heptane-2-carbonyl)benzonitrile], the IC50 in assay [1] is 10 to 100 nM; in assay [2], 1000 to 10000 nM; in assay [3] it was 1000 to 10000 nM.
Consider `CN(c1ncnc2[nH]ccc12)C1CC2(C1)CN(C(=O)c1ccc(C#N)cc1Cl)C2` [Compound 37, 3-chloro-4-(6-(methyl(7H-pyrrolo[2,3-d]pyrimidin-4-yl)amino)-2-azaspiro[3.3]heptane-2-carbonyl)benzonitrile], for which the IC50 in assay [1] lay within 10 to 100 nM; in assay [2], 100 to 1000 nM; in assay [3], 1000 to 10000 nM.
Turning to `CN(c1ncnc2[nH]ccc12)C1CC2(C1)CN(C(=O)c1ccc(I)cc1)C2` [Compound 38, (4-iodophenyl)(6-(methyl(7H-pyrrolo[2,3-d]pyrimidin-4-yl)amino)-2-azaspiro[3.3]heptan-2-yl)methanone], the figures for the IC50 in assay [1], in assay [2] and in assay [3] were 10 to 100 nM, 100 to 1000 nM and 1000 to 10000 nM, respectively.
The like results for `CN(c1ncnc2[nH]ccc12)C1CC2(C1)CN(C(=O)c1ccc(C3CC3)cc1)C2` [Compound 39, (4-cyclopropylphenyl)(6-(methyl(7H-pyrrolo[2,3-d]pyrimidin-4-yl)amino)-2-azaspiro[3.3]heptan-2-yl)methanone] were, in that order, 10 to 100 nM, 100 to 1000 nM and 1000 to 10000 nM.
The matching figures for `C#Cc1ccc(C(=O)N2CC3(CC(N(C)c4ncnc5[nH]ccc45)C3)C2)cc1C` [Compound 40, (4-ethynyl-3-methylphenyl)(6-(methyl(7H-pyrrolo[2,3-d]pyrimidin-4-yl)amino)-2-azaspiro[3.3]heptan-2-yl)methanone]: no more than 10 nM, 100 to 1000 nM and 1000 to 10000 nM.
The like results for `C#Cc1ccc(C(=O)N2CC3(CC(N(C)c4ncnc5[nH]ccc45)C3)C2)c(F)c1` [Compound 41, (4-ethynyl-2-fluorophenyl)(6-(methyl(7H-pyrrolo[2,3-d]pyrimidin-4-yl)amino)-2-azaspiro[3.3]heptan-2-yl)methanone] were, in that order, no more than 10 nM, 10 to 100 nM and 1000 to 10000 nM.
As to `CC#Cc1ccc(C(=O)N2CC3(CC(N(C)c4ncnc5[nH]ccc45)C3)C2)cc1` [Compound 42, (6-(methyl(7H-pyrrolo[2,3-d]pyrimidin-4-yl)amino)-2-azaspiro[3.3]heptan-2-yl)(4-(prop-1-yn-1-yl)phenyl)methanone], the IC50 in assay [1] was no more than 10 nM; in assay [2], 10 to 100 nM; in assay [3] it was 1000 to 10000 nM.
Consider `C#Cc1ccc(C(=O)N2CC3(CC(N(C)c4ncnc5[nH]ccc45)C3)C2)c(Cl)c1` [Compound 43, (2-chloro-4-ethynylphenyl)(6-(methyl(7H-pyrrolo[2,3-d]pyrimidin-4-yl)amino)-2-azaspiro[3.3]heptan-2-yl)methanone], for which the values for the IC50 in assay [1], in assay [2] and in assay [3] were no more than 10 nM, 100 to 1000 nM and 1000 to 10000 nM, respectively.
Turning to `Cc1cc(C#N)ccc1C(=O)N1CC2(CC(N(C)c3ncnc4[nH]ccc34)C2)C1` [Compound 44, 3-methyl-4-(6-(methyl(7H-pyrrolo[2,3-d]pyrimidin-4-yl)amino)-2-azaspiro[3.3]heptane-2-carbonyl)benzonitrile], the figures for the IC50 in assay [1], in assay [2] and in assay [3] were 100 to 1000 nM, 1000 to 10000 nM and no less than 10000 nM, respectively.
